# Assay results taken from ChEMBL document CHEMBL1201862, “PubChem BioAssay data set” (2004).
#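 Exposure lasted 48 hours, with cells grown in 96-well plates and compounds tested at five concentrations. The concentration for 50% growth inhibition is given as GI50.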 Calls of active or inactive are those of the source. Rule as the data show it: active = GI50 up to about 1.1 µM and inactive = higher.
# What was measured:
# Assay in all cases: DTP human tumour cell line panel, 48 h
# [1] = tested on: RPMI-8226
# [2] = tested on: ACHN
# [3] = tested on: CAKI-1
# [4] = tested on: DU-145
# [5] = tested on: SNB-75
# [6] = tested on: SR
# [7] = tested on: MDA-MB-435
# [8] = tested on: SN12C
# [9] = tested on: SK-MEL-2
# [10] = tested on: UO-31
# [11] = tested on: NCI-H460
# [12] = tested on: BT-549
# [13] = tested on: MDA-N
# [14] = tested on: SF-295
# [15] = tested on: OVCAR-3
# [16] = tested on: OVCAR-5
# [17] = tested on: PC-3
# [18] = tested on: K562
# [19] = tested on: U-251
# [20] = tested on: Malme-3M
# [21] = tested on: MDA-MB-231
# [22] = tested on: SK-MEL-5
# [23] = tested on: A498
# [24] = tested on: SF-268
# [25] = tested on: SNB-19
# [26] = tested on: MCF7
# [27] = tested on: HOP-62
# [28] = tested on: M14
# [29] = tested on: HL-60
# [30] = tested on: SF-539
# [31] = tested on: Hs-578T
# [32] = tested on: OVCAR-8
# [33] = tested on: HCC 2998
# [34] = tested on: SK-OV-3
# [35] = tested on: T47D
# [36] = tested on: NCI-H522
# [37] = tested on: SK-MEL-28
# [38] = tested on: IGROV-1
# [39] = tested on: HT-29
# [40] = tested on: LOX IMVI
# [41] = tested on: A549
# [42] = tested on: HCT-15
# [43] = tested on: KM12
# [44] = tested on: NCI-H226
# [45] = tested on: TK-10
# [46] = tested on: EKVX
# [47] = tested on: NCI/ADR-RES
# [48] = tested on: RXF 393
# [49] = tested on: OVCAR-4
# [50] = tested on: HOP-92
# [51] = tested on: COLO 205
# [52] = tested on: HCT-116
# [53] = tested on: UACC-62
# [54] = tested on: CCRF-CEM
# [55] = tested on: UACC-257
# [56] = tested on: MOLT-4
# [57] = tested on: SW-620
# [58] = tested on: 786-0
smiles,measurement,setting,value
CNC(=S)N/N=C(\C)c1nc2cccnc2[nH]1,GI50,[1],71.9 µM (inactive)
same,GI50,[2],38.9 µM (inactive)
same,GI50,[3],33.8 µM (inactive)
same,GI50,[4],55.2 µM (inactive)
same,GI50,[5],> 70.6 µM (inactive)
same,GI50,[6],28.4 µM (inactive)
same,GI50,[7],77.1 µM (inactive)
same,GI50,[8],98.2 µM (inactive)
same,GI50,[9],> 63.5 µM (inactive)
same,GI50,[10],9.25 µM (inactive)
same,GI50,[11],29.9 µM (inactive)
same,GI50,[12],27.9 µM (inactive)
same,GI50,[13],> 100 µM (inactive)
same,GI50,[14],30.3 µM (inactive)
same,GI50,[15],18.6 µM (inactive)
same,GI50,[16],30.8 µM (inactive)
same,GI50,[17],48.5 µM (inactive)
same,GI50,[18],95.3 µM (inactive)
same,GI50,[19],39.8 µM (inactive)
same,GI50,[20],> 70.5 µM (inactive)
same,GI50,[21],42.7 µM (inactive)
same,GI50,[22],29.2 µM (inactive)
same,GI50,[23],> 100 µM (inactive)
same,GI50,[24],37.7 µM (inactive)
same,GI50,[25],> 53.8 µM (inactive)
same,GI50,[26],34.3 µM (inactive)
same,GI50,[27],25.6 µM (inactive)
same,GI50,[28],45.2 µM (inactive)
same,GI50,[29],17.6 µM (inactive)
same,GI50,[30],27.7 µM (inactive)
same,GI50,[31],> 50 µM (inactive)
same,GI50,[32],48.9 µM (inactive)
same,GI50,[33],19.1 µM (inactive)
same,GI50,[34],31.8 µM (inactive)
same,GI50,[35],43.5 µM (inactive)
same,GI50,[36],22.8 µM (inactive)
same,GI50,[37],82.6 µM (inactive)
same,GI50,[38],62.7 µM (inactive)
same,GI50,[39],36.8 µM (inactive)
same,GI50,[40],43.6 µM (inactive)
same,GI50,[41],31.1 µM (inactive)
same,GI50,[42],29.2 µM
same,GI50,[43],46.6 µM (inactive)
same,GI50,[44],38.1 µM (inactive)
same,GI50,[45],32.5 µM (inactive)
same,GI50,[46],47 µM (inactive)
same,GI50,[47],15.3 µM (inactive)
same,GI50,[48],62.2 µM (inactive)
same,GI50,[49],4.12 µM (inactive)
same,GI50,[50],20.6 µM (inactive)
same,GI50,[51],33.5 µM (inactive)
same,GI50,[52],30 µM (inactive)
same,GI50,[53],6.34 µM (inactive)
same,GI50,[54],24.4 µM (inactive)
same,GI50,[55],60.8 µM (inactive)
same,GI50,[56],31.9 µM (inactive)
same,GI50,[57],52.8 µM (inactive)
same,GI50,[58],43.7 µM (inactive)
